This is an account of results in patent US8076487B2, “Pyridone derivative and herbicide” (Kumiai Chemical Industry Co., Ltd., priority 2006, dated 2011).

Holding throughout (assay type): in vivo
Assay [1] has as its system Japanese bulrush (Scirpus juncoides Roxb.). As to the kind of experiment: Test Example 1: herbicidal effect by soil application to paddy field. The conditions noted are these: paddy field soil application; active ingredient 1,000 g per 1 hectare; wettable powder added dropwise to water surface the day after sowing; examined on the 21st day after application. The method in brief: (§1)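 Plants were sown in flooded (3 cm) paddy soil and evaluated for herbicidal effect 21 days after soil application in a greenhouse.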

Assay [2] concerns early watergrass (Echinochloa oryzicola Vasing). The assay is described as above. The settings on record: paddy field soil application; active ingredient 1,000 g per 1 hectare; wettable powder added dropwise to water surface the day after sowing; examined on the 21st day after application. A digest of the protocol: as §1
Assay [3] relates to heartshape false pickerelweed (Monochoria vaginalis (Burm.f.) C.Presl). Described as above. The settings on record: paddy field soil application; active ingredient 1,000 g per 1 hectare; wettable powder added dropwise to water surface the day after sowing; examined on the 21st day after application. The method in brief:
as §1

Assay [4] relates to barnyardgrass (Echinochloa crus-galli (L.) P. Beauv. var. crus-galli). As to the kind of experiment: Test Example 2: herbicidal effect by soil application to upland field. The settings on record: soil surface spray, upland field soil, 1,000 g active ingredient per hectare, 21st day after application. A digest of the protocol:
(§2)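 In this soil-application test, sown and soil-covered pots are sprayed uniformly with the formulation diluted in water, giving 1,000 g of active ingredient per ha in a volume of 1,000 L per ha. Plants then grow in a greenhouse for 21 days before herbicidal scoring by a standard scale.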

Assay [5] concerns green foxtail (Setaria viridis (L.) P. Beauv.). The description is as above. The conditions noted are these: soil surface spray, upland field soil, 1,000 g active ingredient per hectare, 21st day after application. A digest of the protocol:
as §2

Assay [6] relates to slender amaranth (Amaranthus viridis L.). The description is as above. The conditions noted are these: soil surface spray, upland field soil, 1,000 g active ingredient per hectare, 21st day after application. A digest of the protocol: as §2
Assay [7] relates to velvetleaf (Abutilon theophrasti medicus). Described as above. The conditions noted are these: soil surface spray, upland field soil, 1,000 g active ingredient per hectare, 21st day after application. A digest of the protocol:
as §2

Assay [8] relates to barnyardgrass (Echinochloa crus-galli (L.) P. Beauv. var. crus-galli). As to the kind of experiment: Test Example 3: herbicidal effect by application to upland field (foliage treatment). The settings on record: foliage treatment, plants grown two weeks, 1,000 g active ingredient per hectare, 14th day after application. The method in brief:
(§3)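 Upland foliage test in greenhouse pots of field soil: seedlings sprayed at two weeks post-sowing with 1,000 g/ha active ingredient (wettable powder, 1,000 L water/ha). Scored 14 d after application.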

Assay [9] has as its system green foxtail (Setaria viridis (L.) P. Beauv.). The assay is described as above. The conditions noted are these: foliage treatment, plants grown two weeks, 1,000 g active ingredient per hectare, 14th day after application. The method in brief:
as §3

Assay [10] concerns slender amaranth (Amaranthus viridis L.). The assay is described as above. The conditions noted are these: foliage treatment, plants grown two weeks, 1,000 g active ingredient per hectare, 14th day after application. A digest of the protocol: as §3
Assay [11] relates to velvetleaf (Abutilon theophrasti medicus). The description is as above. The settings on record: foliage treatment, plants grown two weeks, 1,000 g active ingredient per hectare, 14th day after application. The method in brief: as §3

In the case of `COc1ccccc1-n1c(C(F)(F)F)ccc(C(=O)C2=C(O)CCCC2=O)c1=O` [I-76], in assay [1], the “herbicidal effect, Scirpus juncoides Roxb.” value is 5 (90% or more of herbicidal effect and crop phytotoxicity). The “herbicidal effect, Echinochloa oryzicola Vasing” value in assay [2] was 5 (90% or more of herbicidal effect and crop phytotoxicity). Further, the “herbicidal effect, Monochoria vaginalis (Burm. f.) C. Presl” value (“herbicidal effect, Monochoria vaginalis” below) in assay [3] is 5 (90% or more of herbicidal effect and crop phytotoxicity). The “herbicidal effect (index), Barnyardgrass” value was 5 (90% or more of herbicidal effect and crop phytotoxicity) in [4]; 5 (90% or more of herbicidal effect and crop phytotoxicity) in [8]. Besides, the “herbicidal effect (index), Green Foxtail” value in assay [5] is 5 (90% or more of herbicidal effect and crop phytotoxicity); in assay [9] it was 3 (50 to less than 70% of herbicidal effect and crop phytotoxicity). Besides, the “herbicidal effect (index), Slender Amaranth” value in assay [6] was 5 (90% or more of herbicidal effect and crop phytotoxicity); in [10], 5 (90% or more of herbicidal effect and crop phytotoxicity). Further, the “herbicidal effect (index), Velvetleaf” value in assay [7] was 5 (90% or more of herbicidal effect and crop phytotoxicity); in [11], 5 (90% or more of herbicidal effect and crop phytotoxicity).

Consider `O=C1CCCC(O)=C1C(=O)c1ccc(C(F)(F)F)n(-c2ccc(OC(F)(F)F)cc2)c1=O` [I-79], for which the “herbicidal effect, Scirpus juncoides Roxb.” value in assay [1] was 5 (90% or more of herbicidal effect and crop phytotoxicity). Also, in [2], the “herbicidal effect, Echinochloa oryzicola Vasing” value is 5 (90% or more of herbicidal effect and crop phytotoxicity). Further, the “herbicidal effect, Monochoria vaginalis” value in assay [3] was 5 (90% or more of herbicidal effect and crop phytotoxicity). In addition, the “herbicidal effect (index), Barnyardgrass” value was 5 (90% or more of herbicidal effect and crop phytotoxicity) in assay [4]; 5 (90% or more of herbicidal effect and crop phytotoxicity) in [8]. Also, the “herbicidal effect (index), Green Foxtail” value in assay [5] was 5 (90% or more of herbicidal effect and crop phytotoxicity); in assay [9], 5 (90% or more of herbicidal effect and crop phytotoxicity). Further, the “herbicidal effect (index), Slender Amaranth” value in [6] is 5 (90% or more of herbicidal effect and crop phytotoxicity); in assay [10], 5 (90% or more of herbicidal effect and crop phytotoxicity). In addition, the “herbicidal effect (index), Velvetleaf” value in [7] was 5 (90% or more of herbicidal effect and crop phytotoxicity); in [11], 5 (90% or more of herbicidal effect and crop phytotoxicity).

In the case of `CSc1cccc(-n2c(C(F)(F)F)ccc(C(=O)C3=C(O)CCCC3=O)c2=O)c1` [I-80], the “herbicidal effect, Scirpus juncoides Roxb.” value in [1] was 5 (90% or more of herbicidal effect and crop phytotoxicity). Besides, the “herbicidal effect, Echinochloa oryzicola Vasing” value in [2] was 5 (90% or more of herbicidal effect and crop phytotoxicity). The “herbicidal effect, Monochoria vaginalis” value in assay [3] was 5 (90% or more of herbicidal effect and crop phytotoxicity). The “herbicidal effect (index), Barnyardgrass” value in assay [4] was 5 (90% or more of herbicidal effect and crop phytotoxicity); in [8] it was 5 (90% or more of herbicidal effect and crop phytotoxicity). Besides, the “herbicidal effect (index), Green Foxtail” value in assay [5] was 5 (90% or more of herbicidal effect and crop phytotoxicity); in assay [9], 5 (90% or more of herbicidal effect and crop phytotoxicity). Further, the “herbicidal effect (index), Slender Amaranth” value is 5 (90% or more of herbicidal effect and crop phytotoxicity) in assay [6]; 5 (90% or more of herbicidal effect and crop phytotoxicity) in assay [10]. Besides, the “herbicidal effect (index), Velvetleaf” value is 5 (90% or more of herbicidal effect and crop phytotoxicity) in assay [7]; 5 (90% or more of herbicidal effect and crop phytotoxicity) in [11].

As for `C[S+]([O-])c1cccc(-n2c(C(F)(F)F)ccc(C(=O)C3=C(O)CCCC3=O)c2=O)c1` (centres unmarked) [I-81], in [1], the “herbicidal effect, Scirpus juncoides Roxb.” value is 5 (90% or more of herbicidal effect and crop phytotoxicity). For the same compound, the “herbicidal effect, Echinochloa oryzicola Vasing” value in assay [2] is 5 (90% or more of herbicidal effect and crop phytotoxicity). Besides, the “herbicidal effect, Monochoria vaginalis” value in assay [3] is 5 (90% or more of herbicidal effect and crop phytotoxicity). Moreover, the “herbicidal effect (index), Barnyardgrass” value is 5 (90% or more of herbicidal effect and crop phytotoxicity) in [4]; 5 (90% or more of herbicidal effect and crop phytotoxicity) in assay [8]. Besides, the “herbicidal effect (index), Green Foxtail” value in assay [5] is 5 (90% or more of herbicidal effect and crop phytotoxicity); in [9], 5 (90% or more of herbicidal effect and crop phytotoxicity). Moreover, the “herbicidal effect (index), Slender Amaranth” value in [6] was 5 (90% or more of herbicidal effect and crop phytotoxicity); in assay [10], 5 (90% or more of herbicidal effect and crop phytotoxicity). Also, the “herbicidal effect (index), Velvetleaf” value in [7] was 5 (90% or more of herbicidal effect and crop phytotoxicity); in [11], 5 (90% or more of herbicidal effect and crop phytotoxicity).

In the case of `CS(=O)(=O)c1cccc(-n2c(C(F)(F)F)ccc(C(=O)C3=C(O)CCCC3=O)c2=O)c1` [I-82], in assay [1], the “herbicidal effect, Scirpus juncoides Roxb.” value was 5 (90% or more of herbicidal effect and crop phytotoxicity). Further, in [2], the “herbicidal effect, Echinochloa oryzicola Vasing” value is 5 (90% or more of herbicidal effect and crop phytotoxicity). Further, the “herbicidal effect, Monochoria vaginalis” value in assay [3] is 5 (90% or more of herbicidal effect and crop phytotoxicity). Besides, the “herbicidal effect (index), Barnyardgrass” value is 5 (90% or more of herbicidal effect and crop phytotoxicity) in [4]; 5 (90% or more of herbicidal effect and crop phytotoxicity) in assay [8]. Further, the “herbicidal effect (index), Green Foxtail” value was 5 (90% or more of herbicidal effect and crop phytotoxicity) in assay [5]; 5 (90% or more of herbicidal effect and crop phytotoxicity) in assay [9]. The “herbicidal effect (index), Slender Amaranth” value in assay [6] is 5 (90% or more of herbicidal effect and crop phytotoxicity); in assay [10], 5 (90% or more of herbicidal effect and crop phytotoxicity). In addition, the “herbicidal effect (index), Velvetleaf” value in assay [7] is 5 (90% or more of herbicidal effect and crop phytotoxicity); in [11], 5 (90% or more of herbicidal effect and crop phytotoxicity).

In the case of `CS(=O)(=O)c1ccc(-n2c(C(F)(F)F)ccc(C(=O)C3=C(O)CCCC3=O)c2=O)cc1` [I-83], the “herbicidal effect, Scirpus juncoides Roxb.” value in assay [1] is 5 (90% or more of herbicidal effect and crop phytotoxicity). For the same compound, in [2], the “herbicidal effect, Echinochloa oryzicola Vasing” value is 5 (90% or more of herbicidal effect and crop phytotoxicity). In [3], the “herbicidal effect, Monochoria vaginalis” value was 5 (90% or more of herbicidal effect and crop phytotoxicity). Also, the “herbicidal effect (index), Barnyardgrass” value was 5 (90% or more of herbicidal effect and crop phytotoxicity) in assay [4]; 5 (90% or more of herbicidal effect and crop phytotoxicity) in assay [8]. Also, the “herbicidal effect (index), Green Foxtail” value in assay [5] was 5 (90% or more of herbicidal effect and crop phytotoxicity); in [9], 5 (90% or more of herbicidal effect and crop phytotoxicity). Moreover, the “herbicidal effect (index), Slender Amaranth” value in assay [6] was 5 (90% or more of herbicidal effect and crop phytotoxicity); in assay [10], 5 (90% or more of herbicidal effect and crop phytotoxicity). For the same compound, the “herbicidal effect (index), Velvetleaf” value in assay [7] is 5 (90% or more of herbicidal effect and crop phytotoxicity); in assay [11] it was 5 (90% or more of herbicidal effect and crop phytotoxicity).

With `O=C1CCCC(O)=C1C(=O)c1ccc(C(F)(F)F)n(-c2cccc(C(F)(F)F)c2)c1=O` [I-85], the “herbicidal effect, Scirpus juncoides Roxb.” value in assay [1] is 5 (90% or more of herbicidal effect and crop phytotoxicity). Besides, the “herbicidal effect, Echinochloa oryzicola Vasing” value in assay [2] is 5 (90% or more of herbicidal effect and crop phytotoxicity). In assay [3], the “herbicidal effect, Monochoria vaginalis” value is 5 (90% or more of herbicidal effect and crop phytotoxicity). Besides, the “herbicidal effect (index), Barnyardgrass” value in assay [4] was 5 (90% or more of herbicidal effect and crop phytotoxicity); in [8], 5 (90% or more of herbicidal effect and crop phytotoxicity). Besides, the “herbicidal effect (index), Green Foxtail” value in [5] was 5 (90% or more of herbicidal effect and crop phytotoxicity); in assay [9], 5 (90% or more of herbicidal effect and crop phytotoxicity). The “herbicidal effect (index), Slender Amaranth” value is 5 (90% or more of herbicidal effect and crop phytotoxicity) in [6]; 5 (90% or more of herbicidal effect and crop phytotoxicity) in assay [10]. Also, the “herbicidal effect (index), Velvetleaf” value in assay [7] was 5 (90% or more of herbicidal effect and crop phytotoxicity); in assay [11], 5 (90% or more of herbicidal effect and crop phytotoxicity).
